Experimental data as given in PMC3922101 (Osong Public Health and Research Perspectives, 2013).

Legend:
Type in all cases: biochemical, influenza A/Chungbuk/4448/2008(H1N1) virus
[1] = target: neuraminidase (NA) of recombinant virus Chungbuk-Y275-N295S-I223V (Influenza A virus, UniProt E3JK96, I223V/N295S)
[2] = system: NA of all the single and double mutants containing tyrosine (Y) at NA residue 275 except Chungbuk-Y275-E119V
[3] = target: neuraminidase (NA) of recombinant virus Chungbuk-Y275H-N295S-I223V (Influenza A virus (A/Chungbuk/4448/2008(H1N1)), UniProt E3JK96, I223V/N295S/Y275H)
[4] = target: neuraminidase (NA) of recombinant virus Chungbuk-Y275-N295S-I117M (Influenza A virus, UniProt E3JK96, I117M/N295S)
[5] = target: neuraminidase (NA) of recombinant virus Chungbuk-Y275H-N295S-I117M (Influenza A virus (A/Chungbuk/4448/2008(H1N1)), UniProt E3JK96, I117M/N295S/Y275H)
[6] = system: NA of all the single, double, and triple mutants containing the E119V mutation
[7] = target: neuraminidase (NA) of recombinant virus Chungbuk-Y275-E119V (Influenza A virus, UniProt E3JK96, E119V)
[8] = target: neuraminidase (NA) of recombinant virus Chungbuk-Y275H-E119V (Influenza A virus, UniProt E3JK96, E119V/Y275H)
[9] = target: neuraminidase (NA) of recombinant virus Chungbuk-Y275H-N295S-I117V (Influenza A virus (A/Chungbuk/4448/2008(H1N1)), UniProt E3JK96, I117V/N295S/Y275H)

CC(=O)N[C@H]1[C@H]([C@H](O)[C@H](O)CO)OC(C(=O)O)=C[C@@H]1N=C(N)N [Zanamivir]
NAI resistance phenotype [1]: susceptible | NAI resistance phenotype [2]: susceptibility | NAI resistance phenotype [3]: susceptible | NAI resistance phenotype [4]: susceptible | NAI resistance phenotype [5]: susceptible | NAI resistance phenotype [6]: resistance | NAI resistance phenotype [7]: important levels of resistance | NAI resistance phenotype [8]: important levels of resistance | NAI resistance phenotype [9]: susceptible
